In one data set the test system is HAase. The data set can be described thus: In vitro HAase-mediated TRAIL release and CD spectra. Format: physicochemical. To be noted: TRAIL released from Gelipo versus native TRAIL. Here is the method: 500 μL of rhodamine-labeled TRAIL-loaded Gelipo (r-TRAIL-Gelipo) was incubated with 500 μL of HAase (1 mg/mL) at pH 6.5 in a 37° C. water bath. At prearranged time intervals, free r-TRAIL in the filtrate was harvested using centrifugal filters (30K MWCO) (Millipore). The fluorescence intensity of r-TRAIL was determined at 585 nm with an excitation wavelength of 552 nm by a microplate reader (Infinite M200 PRO, Tecan). Additionally, the far-UV CD spectra of the native TRAIL and the released TRAIL from TRAIL Gelipo were obtained using a Circular Dichroism Spectrometer (Aviv).

The next data set relates to MDA-MB-231 cells. The data set can be described thus: Cell apoptosis assay (Annexin V-FITC, TUNEL), Example 2. Format: cell-based, human. The note with it: 12 h. Here is the method: Apoptosis of MDA-MB-231 cells was detected using the Annexin V-FITC Apoptosis Detection Kit (BD Biosciences) and APO-BrdU TUNEL Assay Kit (Life Technologies), respectively. The cells (1×10^5 cells/well) were seeded in 6-well plates and cultured for 48 h. For Annexin V-FITC assay, the cells were incubated with different formulations for 12 h, including free TRAIL (2 or 20 ng/mL), TRAIL-Gelipo (20 ng/mL) with or without HAase-treatment, Dox-R8H3-L (100 ng/mL), TRAIL/Dox-Gelipo (2 ng/mL TRAIL, 100 ng/mL Dox) with HAase-treatment. For TUNEL assay, the cells were incubated with free TRAIL (2 ng/mL), Dox-R8H3-L (100 ng/mL) and TRAIL/Dox-Gelipo (2 ng/mL TRAIL, 100 ng/mL Dox) with HAase-treatment for 20 h, respectively. The following procedures were performed in accordance with the manufacturers' protocols. Finally, for Annexin V-FITC assay, the cells were analyzed by flow cytometry (BD FACSCalibur), while for TUNEL assay, the cells were observed by fluorescence microscope (IX71, Olympus).

For data set [1], the system named is MDA-MB-231 tumor xenograft. The data set can be described thus: In vivo antitumor efficacy of Gelipo formulations. To be noted: i.v. 2 mg/kg Dox every other day for 12 days. Here is the method:
All animals were treated in accordance with the Guide for Care and Use of Laboratory Animals, approved by local committee. The female nude mice were subcutaneously inoculated in the back with MDA-MB-231 cells (1×10^7 cells/mouse) for the construction of the tumor xenograft model. The tumor size was monitored by a fine caliper and the tumor volume (V) was calculated as V=L×W^2/2, where L and W were the length and width of the tumor, respectively.
When the tumor volume reached to 50 mm^3, the mice were weighed, randomly divided into 4 groups, and intravenously administrated with the Dox solution (2 mg/kg), Dox-Gelipo (2 mg/kg), Dox/TRAIL-Gelipo (2 mg/kg Dox, 0.04 mg/kg TRAIL) and saline every other day for 12 days. The tumor size and body weight of the mice were measured at the meantime. At Day 14, the tumor were harvested from the mice after euthanasia, washed by saline thrice and then fixed in 10% neutral buffered formalin (NBF). For HE staining, formalin-fixed tumors were embedded in paraffin blocks and visualized by optical microscope (DM5500B, Leica). For TUNEL apoptosis staining, the fixed tumor sections were stained by the In Situ Cell Death Detection Kit (Roche Applied Science) according to the manufacturer's protocol. Hoechst 33342 was used for nuclear nuclear counterstaining. The stained tumor slides were observed by fluorescence microscope (IX71, Olympus).

[2] abbreviates: 20 ng/mL TRAIL, Annexin V-FITC/PI.

Regarding “free TRAIL: His-ILZ-TRAIL (residues 114-281) produced in E. coli; TNF-related apoptosis-inducing ligand”, in the data set on HAase, the “Secondary structure of released TRAIL (CD spectrum)” value is “no noticeable conformational changes in the secondary structure”. Also, the Apoptosis ratio in the data set on MDA-MB-231 cells (2 ng/mL TRAIL) is recorded as 36.48%. Also, in the data set on MDA-MB-231 cells (setting [2]), the Apoptosis ratio is 51.71% and the Viability was found to be 32.30%.

For `COc1cccc2c1C(=O)c1c(O)c3c(c(O)c1C2=O)C[C@@](O)(C(=O)CO)C[C@@H]3O[C@H]1C[C@H](N)[C@H](O)[C@H](C)O1` [Dox solution, doxorubicin], the “Tumor growth compared with saline” value in data set [1] is on record as “remarkably suppressed”.

The values are drawn from US9919002B2, “Methods and constructs for compound delivery” (North Carolina State University, priority 2013, dated 2018).
